Patent publication US20260262643A1, “HERBICIDAL BENZOXAZINES” (FMC CORPORATION, priority 2022, published 2026)

Legend:
barnyardgrass [1] = assay: Test A preemergence; assay type: in vivo, Echinochloa crusgalli; conditions: visual injury after 10 days, 0 to 100 scale, 0 is no effect, 100 is complete control
In short: (§1)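 Visual injury ratings on a 0–100 scale (100 = complete control) versus untreated controls, taken 10 days after treatment in greenhouse. Preemergence: directed soil spray onto seeded loam/sand. Postemergence: foliar application at one- to two-leaf stage, plants 2–10 cm. Formulation: non-phytotoxic solvent plus surfactant.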

blackgrass [2] = assay: Test A preemergence; assay type: in vivo, Alopecurus myosuroides; conditions: 0 to 100 scale
In short: as §1

corn [3] = assay: Test A preemergence; assay type: in vivo, Zea mays; conditions: 0 to 100 scale
In short: as §1

foxtail, giant [4] = assay: Test A preemergence; assay type: in vivo, Setaria faberi; conditions: 0 to 100 scale
In short: as §1

kochia [5] = assay: Test A preemergence; assay type: in vivo, Bassia scoparia; conditions: 0 to 100 scale
In short: as §1

oat, wild [6] = assay: Test A preemergence; assay type: in vivo, Avena fatua; conditions: 0 to 100 scale
In short: as §1

pigweed, palmer [7] = assay: Test A preemergence; assay type: in vivo, Amaranthus palmeri; conditions: 0 to 100 scale
In short: as §1

ragweed [8] = assay: Test A preemergence; assay type: in vivo, Ambrosia artemisiifolia; conditions: 0 to 100 scale
In short: as §1

ryegrass, Italian [9] = assay: Test A preemergence; assay type: in vivo, Lolium multiflorum; conditions: 0 to 100 scale
In short: as §1

soybean [10] = assay: Test A preemergence; assay type: in vivo, Glycine max; conditions: 0 to 100 scale
In short: as §1

wheat [11] = assay: Test A preemergence; assay type: in vivo, Triticum aestivum; conditions: 0 to 100 scale
In short: as §1

barnyardgrass [12] = assay: Test A postemergence; assay type: in vivo, Echinochloa crusgalli; conditions: postemergence, 10 days
In short: as §1

blackgrass [13] = assay: Test A postemergence; assay type: in vivo, Alopecurus myosuroides; conditions: postemergence, 10 days
In short: as §1

corn [14] = assay: Test A postemergence; assay type: in vivo, Zea mays; conditions: postemergence, 10 days
In short: as §1

foxtail, giant [15] = assay: Test A postemergence; assay type: in vivo, Setaria faberi; conditions: postemergence, 10 days
In short: as §1

kochia [16] = assay: Test A postemergence; assay type: in vivo, Bassia scoparia; conditions: postemergence, 10 days
In short: as §1

oat, wild [17] = assay: Test A postemergence; assay type: in vivo, Avena fatua; conditions: postemergence, 10 days
In short: as §1

pigweed, palmer [18] = assay: Test A postemergence; assay type: in vivo, Amaranthus palmeri; conditions: postemergence, 10 days
In short: as §1

ragweed [19] = assay: Test A postemergence; assay type: in vivo, Ambrosia artemisiifolia; conditions: postemergence, 10 days
In short: as §1

ryegrass, Italian [20] = assay: Test A postemergence; assay type: in vivo, Lolium multiflorum; conditions: postemergence, 10 days
In short: as §1

soybean [21] = assay: Test A postemergence; assay type: in vivo, Glycine max; conditions: postemergence, 10 days
In short: as §1

wheat [22] = assay: Test A postemergence; assay type: in vivo, Triticum aestivum; conditions: postemergence, 10 days
In short: as §1

galium = assay: Test A postemergence; assay type: in vivo, Galium aparine; conditions: postemergence, 10 days
In short: as §1

horseweed = assay: Test A postemergence; assay type: in vivo, Erigeron canadensis; conditions: postemergence, 10 days
In short: as §1

barnyardgrass [23] = assay: Test B flooded paddy test; assay type: in vivo, Echinochloa crus-galli; conditions: 250 g ai/ha, Flood, 13 days, 0 to 100 scale (0 no effect, 100 complete control)
In short: (§2)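 2-leaf stage; pots flooded 3 cm over soil; compound dosed into paddy water; depth kept constant. Greenhouse, 13 d. Visual rating vs controls, 0 (no effect)–100 (complete control). Dash = no result.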

ducksalad = assay: Test B flooded paddy test; assay type: in vivo, Heteranthera limosa; conditions: 250 g ai/ha, Flood, 13 days, 0 to 100 scale (0 no effect, 100 complete control)
In short: as §2

rice = assay: Test B flooded paddy test; assay type: in vivo, Oryza sativa; conditions: 250 g ai/ha, Flood, 13 days, 0 to 100 scale (0 no effect, 100 complete control)
In short: as §2

sedge, umbrella = assay: Test B flooded paddy test; assay type: in vivo, Cyperus difformis; conditions: 250 g ai/ha, Flood, 13 days, 0 to 100 scale (0 no effect, 100 complete control)
In short: as §2

[24] = 500 g ai/ha, visual injury after 10 days, 0 is no effect, 100 is complete control
[25] = 125 g ai/ha, 0 to 100 scale, 0 no effect, 100 complete control
[26] = 500 g ai/ha, visual injury, 0 to 100 scale (0 no effect, 100 complete control)

Structure (SMILES): COc1cc(C(=O)N2C[C@H](C)Oc3c(Cl)cccc32)cc(-n2cncn2)c1 [Compound 138]
- Plant response rating, Barnyardgrass (barnyardgrass [1]; 125 g ai/ha): 90
- Plant response rating, Barnyardgrass (barnyardgrass [1]; 500 g ai/ha): 100
- Plant response rating, Blackgrass (blackgrass [2]; 125 g ai/ha): 80
- Plant response rating, Blackgrass (blackgrass [2]; [24]): 90
- Plant response rating, Corn (corn [3]; 125 g ai/ha): 10
- Plant response rating, Corn (corn [3]; [24]): 10
- Plant response rating, Foxtail, Giant (foxtail, giant [4]; 125 g ai/ha): 100
- Plant response rating, Foxtail, Giant (foxtail, giant [4]; [24]): 100
- Plant response rating, Kochia (kochia [5]; 125 g ai/ha): 0
- Plant response rating, Kochia (kochia [5]; [24]): 50
- Plant response rating, Oat, Wild (oat, wild [6]; 125 g ai/ha): 40
- Plant response rating, Oat, Wild (oat, wild [6]; [24]): 90
- Plant response rating, Pigweed, Palmer (pigweed, palmer [7]; 125 g ai/ha): 90
- Plant response rating, Pigweed, Palmer (pigweed, palmer [7]; [24]): 100
- Plant response rating, Ragweed (ragweed [8]; 125 g ai/ha): 0
- Plant response rating, Ragweed (ragweed [8]; [24]): 0
- Plant response rating, Ryegrass, Italian (ryegrass, Italian [9]; 125 g ai/ha): 80
- Plant response rating, Ryegrass, Italian (ryegrass, Italian [9]; [24]): 100
- Plant response rating, Soybean (soybean [10]; 125 g ai/ha): 70
- Plant response rating, Soybean (soybean [10]; [24]): 100
- Plant response rating, Wheat (wheat [11]; 125 g ai/ha): 40
- Plant response rating, Wheat (wheat [11]; [24]): 90
- Barnyardgrass plant response rating (barnyardgrass [12]; [25]): 60
- Plant response rating, Barnyardgrass (barnyardgrass [12]; [26]): 80
- Blackgrass plant response rating (blackgrass [13]; [25]): 80
- Plant response rating, Blackgrass (blackgrass [13]; [26]): 90
- Corn plant response rating (corn [14]; [25]): 80
- Plant response rating, Corn (corn [14]; [26]): 90
- Foxtail, Giant plant response rating (foxtail, giant [15]; [25]): 90
- Plant response rating, Foxtail, Giant (foxtail, giant [15]; [26]): 90
- Kochia plant response rating (kochia [16]; [25]): 80
- Plant response rating, Kochia (kochia [16]; [26]): 80
- Oat, Wild plant response rating (oat, wild [17]; [25]): 50
- Plant response rating, Oat, Wild (oat, wild [17]; [26]): 80
- Pigweed, Palmer plant response rating (pigweed, palmer [18]; [25]): 30
- Plant response rating, Pigweed, Palmer (pigweed, palmer [18]; [26]): 90
- Ragweed plant response rating (ragweed [19]; [25]): 0
- Plant response rating, Ragweed (ragweed [19]; [26]): 40
- Ryegrass, Italian plant response rating (ryegrass, Italian [20]; [25]): 70
- Plant response rating, Ryegrass, Italian (ryegrass, Italian [20]; [26]): 100
- Soybean plant response rating (soybean [21]; [25]): 100
- Plant response rating, Soybean (soybean [21]; [26]): 100
- Wheat plant response rating (wheat [22]; [25]): 40
- Plant response rating, Wheat (wheat [22]; [26]): 80
- Galium plant response rating (galium; [25]): 80
- Plant response rating, Galium (galium; [26]): 100
- Horseweed plant response rating (horseweed; [25]): 0
- Plant response rating, Horseweed (horseweed; [26]): 0
- Plant response rating, Barnyardgrass (barnyardgrass [23]): 35
- Plant response rating, Ducksalad (ducksalad): 70
- Plant response rating, Rice (rice): 35
- Plant response rating, Sedge, Umbrella (sedge, umbrella): 75
